In brackets after ≈: the same amount, converted by molar mass.
Legend:
MRSA clinical isolates [1] = experiment: MIC by broth microdilution against multidrug-resistant MRSA clinical isolates; assay type: cell-based, Staphylococcus aureus; conditions: Staphylococcus aureus, MRSA, read-out: MIC against 8 MRSA strains
Method: (§1) Clinical MRSA isolates with multidrug resistance were obtained from the collection of the Research Institute of Antimicrobial Chemotherapy, Smolensk State Medical Academy.
The MICs were determined using a broth microdilution method according to [42]. Briefly, serial dilutions of the tested compounds in 50 µL of Mueller Hinton broth (BD) were prepared in 96-well microplates. The antibiotics vancomycin and linezolid (Sigma-Aldrich, St. Louis, MO, USA) were used as a positive control. Bacterial suspensions of the tested MRSA strains were prepared in the Mueller Hinton broth (BD) with a concentration 1 × 10^6 CFU/mL, and then 50 µL aliquots were added to the prepared microplates. The final concentrations of the antibiotics in the wells were 1, 0.5, 0.25, and 0.125 mg/L, for the tested compounds, and 2 mg/L for vancomycin and linezolid. Negative control (lack of bacterial cells) and growth control (lack of compound) wells were included in all plates. The microplates were incubated at 37 °C for 18 h. The growth was assessed visually after incubation, and the MIC was assumed as the lowest compound concentration at which a noticeable growth of the microorganisms was inhibited (no visible growth). All experiments were conducted in triplicate.

MRSA clinical isolates [2] = experiment: Antibiotic susceptibility profile of MRSA clinical isolates (EUCAST breakpoints); assay type: cell-based, Staphylococcus aureus
Description: as §1

CN[C@H](CC(C)C)C(=O)N[C@H]1C(=O)N[C@@H](CC(N)=O)C(=O)N[C@H]2C(=O)N[C@H]3C(=O)N[C@H](C(=O)N[C@H](C(=O)O)c4cc(O)cc(O)c4-c4cc3ccc4O)[C@H](O)c3ccc(c(Cl)c3)Oc3cc2cc(c3O[C@@H]2O[C@H](CO)[C@@H](O)[C@H](O)[C@H]2O[C@H]2C[C@](C)(N)[C@H](O)[C@H](C)O2)Oc2ccc(cc2Cl)[C@H]1O [Vancomycin, vancomycin]
MIC (MRSA clinical isolates [1]): 2 µg/mL (≈ 1.38 µM)
Drug sensibility profile (MRSA clinical isolates [2]; MRSA strain 1): S
Drug sensibility profile (MRSA clinical isolates [2]; MRSA strain 2): S
Drug sensibility profile (MRSA clinical isolates [2]; MRSA strain 3): S
Drug sensibility profile (MRSA clinical isolates [2]; MRSA strain 4): S
Drug sensibility profile (MRSA clinical isolates [2]; MRSA strain 5): S
Drug sensibility profile (MRSA clinical isolates [2]; MRSA strain 6): S
Drug sensibility profile (MRSA clinical isolates [2]; MRSA strain 7): S
Drug sensibility profile (MRSA clinical isolates [2]; MRSA strain 8): S
Drug sensibility profile (MRSA clinical isolates [2]; MRSA strain 9): S
Drug sensibility profile (MRSA clinical isolates [2]; MRSA strain 10): S
Drug sensibility profile (MRSA clinical isolates [2]; MRSA strain 12): S
Drug sensibility profile (MRSA clinical isolates [2]; MRSA strain 13): S
Drug sensibility profile (MRSA clinical isolates [2]; MRSA strain 14): S
Drug sensibility profile (MRSA clinical isolates [2]; MRSA strain 15): S
Drug sensibility profile (MRSA clinical isolates [2]; MRSA strain 16): S
Drug sensibility profile (MRSA clinical isolates [2]; MRSA strain 17): S
Drug sensibility profile (MRSA clinical isolates [2]; MRSA strain 18): S
Drug sensibility profile (MRSA clinical isolates [2]; MRSA strain 21): S
Drug sensibility profile (MRSA clinical isolates [2]; MRSA strain 23): S
Drug sensibility profile (MRSA clinical isolates [2]; MRSA strain 24): S
Drug sensibility profile (MRSA clinical isolates [2]; MRSA strain 25): S
Drug sensibility profile (MRSA clinical isolates [2]; MRSA strain 26): S
Drug sensibility profile (MRSA clinical isolates [2]; MRSA strain 27): S
Drug sensibility profile (MRSA clinical isolates [2]; MRSA strain 28): S
Drug sensibility profile (MRSA clinical isolates [2]; MRSA strain 29): S
Drug sensibility profile (MRSA clinical isolates [2]; MRSA strain 30): S
Drug sensibility profile (MRSA clinical isolates [2]; MRSA strain 31): S
Drug sensibility profile (MRSA clinical isolates [2]; MRSA strain 34): S
Drug sensibility profile (MRSA clinical isolates [2]; MRSA strain 35): S
Drug sensibility profile (MRSA clinical isolates [2]; MRSA strain 36): S
Drug sensibility profile (MRSA clinical isolates [2]; MRSA strain 40): S
Drug sensibility profile (MRSA clinical isolates [2]; MRSA strain 41): S
Drug sensibility profile (MRSA clinical isolates [2]; MRSA strain 42): S
Drug sensibility profile (MRSA clinical isolates [2]; MRSA strain 43): S
Drug sensibility profile (MRSA clinical isolates [2]; MRSA strain 44): S
Drug sensibility profile (MRSA clinical isolates [2]; MRSA strain 45): S
Drug sensibility profile (MRSA clinical isolates [2]; MRSA strain 46): S
Drug sensibility profile (MRSA clinical isolates [2]; MRSA strain 48): S
Drug sensibility profile (MRSA clinical isolates [2]; MRSA strain 49): S
Drug sensibility profile (MRSA clinical isolates [2]; MRSA strain 50): S
Drug sensibility profile (MRSA clinical isolates [2]; MRSA strain 51): S

CN(C)c1cc(NC(=O)CNC(C)(C)C)c(O)c2c1C[C@H]1C[C@H]3[C@H](N(C)C)C(O)=C(C(N)=O)C(=O)[C@@]3(O)C(O)=C1C2=O [Tigecycline]
Drug sensibility profile (MRSA clinical isolates [2]; MRSA strain 1): S
Drug sensibility profile (MRSA clinical isolates [2]; MRSA strain 2): R
Drug sensibility profile (MRSA clinical isolates [2]; MRSA strain 3): S
Drug sensibility profile (MRSA clinical isolates [2]; MRSA strain 4): S
Drug sensibility profile (MRSA clinical isolates [2]; MRSA strain 5): S
Drug sensibility profile (MRSA clinical isolates [2]; MRSA strain 6): S
Drug sensibility profile (MRSA clinical isolates [2]; MRSA strain 7): S
Drug sensibility profile (MRSA clinical isolates [2]; MRSA strain 8): R
Drug sensibility profile (MRSA clinical isolates [2]; MRSA strain 9): R
Drug sensibility profile (MRSA clinical isolates [2]; MRSA strain 10): S
Drug sensibility profile (MRSA clinical isolates [2]; MRSA strain 12): R
Drug sensibility profile (MRSA clinical isolates [2]; MRSA strain 13): R
Drug sensibility profile (MRSA clinical isolates [2]; MRSA strain 14): S
Drug sensibility profile (MRSA clinical isolates [2]; MRSA strain 15): S
Drug sensibility profile (MRSA clinical isolates [2]; MRSA strain 16): S
Drug sensibility profile (MRSA clinical isolates [2]; MRSA strain 17): R
Drug sensibility profile (MRSA clinical isolates [2]; MRSA strain 18): S
Drug sensibility profile (MRSA clinical isolates [2]; MRSA strain 21): S
Drug sensibility profile (MRSA clinical isolates [2]; MRSA strain 23): S
Drug sensibility profile (MRSA clinical isolates [2]; MRSA strain 24): S
Drug sensibility profile (MRSA clinical isolates [2]; MRSA strain 25): S
Drug sensibility profile (MRSA clinical isolates [2]; MRSA strain 26): S
Drug sensibility profile (MRSA clinical isolates [2]; MRSA strain 27): S
Drug sensibility profile (MRSA clinical isolates [2]; MRSA strain 28): S
Drug sensibility profile (MRSA clinical isolates [2]; MRSA strain 29): S
Drug sensibility profile (MRSA clinical isolates [2]; MRSA strain 30): S
Drug sensibility profile (MRSA clinical isolates [2]; MRSA strain 31): S
Drug sensibility profile (MRSA clinical isolates [2]; MRSA strain 34): S
Drug sensibility profile (MRSA clinical isolates [2]; MRSA strain 35): S
Drug sensibility profile (MRSA clinical isolates [2]; MRSA strain 36): S
Drug sensibility profile (MRSA clinical isolates [2]; MRSA strain 40): S
Drug sensibility profile (MRSA clinical isolates [2]; MRSA strain 41): S
Drug sensibility profile (MRSA clinical isolates [2]; MRSA strain 42): S
Drug sensibility profile (MRSA clinical isolates [2]; MRSA strain 43): S
Drug sensibility profile (MRSA clinical isolates [2]; MRSA strain 44): S
Drug sensibility profile (MRSA clinical isolates [2]; MRSA strain 45): S
Drug sensibility profile (MRSA clinical isolates [2]; MRSA strain 46): S
Drug sensibility profile (MRSA clinical isolates [2]; MRSA strain 48): S
Drug sensibility profile (MRSA clinical isolates [2]; MRSA strain 49): S
Drug sensibility profile (MRSA clinical isolates [2]; MRSA strain 50): S
Drug sensibility profile (MRSA clinical isolates [2]; MRSA strain 51): S
